Source: US9388164B2, “Methods of using pyruvate kinase activators” (AGIOS PHARMACEUTICALS, INC, priority 2011, dated 2016)

Legend:
Format in all cases: biochemical
[1] = target: PKR R510Q (Homo sapiens, UniProt P30613, R510Q); experiment: PKR R510Q Single Point Percent Activation Assay; conditions: compound at 1 μM; read-out: % Act. R510Q
Description: PKR R510Q Single Point Percent Activation Assay
(§1) A compound described herein was diluted with DMSO and tested at 1 μM concentration. The enzyme was diluted in 1× Buffer: (100 mM KCl, 50 mM Tris 7.5, 5 mM MgCl2, 1 mM DTT, 0.03% BSA). 2 μL of compound solution was first added into wells, and then 180 μL of enzyme solution was added. Assays were assembled except for ADP, and plates were stored for 60 minutes at RT. 20 μL ADP was added to start the assay and assay output was evaluated using OD340 at SpectraMax. The assay was run at room temperature.
PKR R510Q (40 ng/well), Tris pH 7.5 (50 mM), KCl (100 mM), MgCl2 (5 mM), ADP (0.2 mM), PEP (0.11 mM), NADH (180 μM), LDH (0.5 units, Sigma 59023), DTT (1 mM) and BSA (0.03%).

[2] = target: PKR R532W (Homo sapiens, UniProt P30613, R532W); experiment: PKR R532W Single Point Percent Activation Assay; conditions: compound at 1 μM; read-out: % Act. R532W
Sequence of PKR R532W (P30613 whole entry R532W): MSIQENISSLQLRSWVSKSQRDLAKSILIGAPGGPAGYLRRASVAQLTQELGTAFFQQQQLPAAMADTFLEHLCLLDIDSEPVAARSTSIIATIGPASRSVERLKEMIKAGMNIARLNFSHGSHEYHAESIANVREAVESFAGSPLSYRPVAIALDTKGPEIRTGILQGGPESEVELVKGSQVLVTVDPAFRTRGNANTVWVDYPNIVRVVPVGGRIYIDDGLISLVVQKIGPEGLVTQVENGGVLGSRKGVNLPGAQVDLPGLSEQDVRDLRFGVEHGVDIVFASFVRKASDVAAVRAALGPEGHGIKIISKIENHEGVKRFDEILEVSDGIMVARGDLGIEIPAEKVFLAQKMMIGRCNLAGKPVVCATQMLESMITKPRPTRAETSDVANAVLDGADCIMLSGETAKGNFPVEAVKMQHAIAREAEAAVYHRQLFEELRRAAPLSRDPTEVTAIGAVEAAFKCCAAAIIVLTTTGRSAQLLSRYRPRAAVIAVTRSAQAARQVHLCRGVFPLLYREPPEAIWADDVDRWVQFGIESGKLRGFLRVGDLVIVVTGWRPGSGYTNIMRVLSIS
Description: PKR R532W Single Point Percent Activation Assay
as §1
PKR R532W (100 ng/well), Tris pH 7.5 (50 mM), KCl (100 mM), MgCl2 (5 mM), ADP (0.36 mM), PEP (0.1 mM), NADH (180 μM), LDH (0.5 units, Sigma 59023), DTT (1 mM) and BSA (0.03%).

[3] = target: PKR T384W (Homo sapiens, UniProt P30613); experiment: PKR T384W Single Point Percent Activation Assay; conditions: compound at 1 μM
Sequence of PKR T384W (P30613 whole entry T384M): as the sequence (P30613 whole entry R532W) above, with T384M, W532R counted along it
Description: PKR T384W Single Point Percent Activation Assay
as §1, with “180 μL enzyme solution” for “180 μL of enzyme solution”
PKR T384W soluble (300 ng/well), Tris pH 7.5 (50 mM), KCl (100 mM), MgCl2 (5 mM), ADP (0.08 mM), PEP (0.23 mM), NADH (180 μM), LDH (0.5 units, Sigma 59023), DTT (1 mM) and BSA (0.03%).

[4] = target: PKR wt (Homo sapiens, UniProt P30613); experiment: PKR WT Single Point Percent Activation Assay; conditions: compound at 1 μM
Sequence of PKR wt (P30613 whole entry): as the sequence (P30613 whole entry R532W) above, with W532R counted along it
Description: PKR WT Single Point Percent Activation Assay
as §1
PKR wt (100 ng/well), Tris pH 7.5 (50 mM), KCl (100 mM), MgCl2 (5 mM), ADP (0.48 mM), PEP (0.15 mM), NADH (180 μM), LDH (0.5 units, Sigma 59023), DTT (1 mM) and BSA (0.03%).

Sequence of PKR R510Q (P30613 whole entry R510Q): as the sequence (P30613 whole entry R532W) above, with R510Q, W532R counted along it

Structure (SMILES) | activation at 1 µM [1] [%] | activation at 1 µM [2] [%] | activation at 1 µM [4] [%] | % Act. T384W [3]
CC1(O)CN(C(=O)c2ccc(NS(=O)(=O)c3cccc4cccnc34)c(F)c2)C1 | 101 to 500 | 1 to 100 | 101 to 500 | B (a % activation at 1 μM of from 101 to 500)
COc1cc(NS(=O)(=O)c2cccc3cccnc23)ccc1C(=O)N1CC(C)(O)C1 | 101 to 500 | 1 to 100 | 101 to 500 | B (a % activation at 1 μM of from 101 to 500)
COc1ccccc1OC1CN(C(=O)c2ccc(NS(=O)(=O)c3cccc4cccnc34)cc2)C1 | 101 to 500 | 1 to 100 | 101 to 500 | B (a % activation at 1 μM of from 101 to 500)
COc1cc(NS(=O)(=O)c2cccc3cccnc23)ccc1C(=O)N1CC(O)(Cc2ccccc2)C1 | 101 to 500 | 101 to 500 | 101 to 500 | B (a % activation at 1 μM of from 101 to 500)
Cc1cc(C(=O)N2CC(O)(Cc3ccccc3)C2)ccc1NS(=O)(=O)c1cccc2cccnc12 | 101 to 500 | 1 to 100 | 101 to 500 | B (a % activation at 1 μM of from 101 to 500)
Cc1cc(C(=O)N2CC(OC(=O)NC(C)C)C2)ccc1NS(=O)(=O)c1cccc2cccnc12 | 101 to 500 | 101 to 500 | 101 to 500 | A (a % activation at 1 μM of from 1 to 100)
COc1cc(NS(=O)(=O)c2cccc3cccnc23)ccc1C(=O)N1CC(OC(=O)NC(C)C)C1 | 101 to 500 | 101 to 500 | 101 to 500 | B (a % activation at 1 μM of from 101 to 500)
CC(C)NC(=O)OC1CN(C(=O)c2ccc(NS(=O)(=O)c3cccc4cccnc34)c(F)c2)C1 | 101 to 500 | 1 to 100 | 101 to 500 | B (a % activation at 1 μM of from 101 to 500)
Cc1cc(C(=O)N2CC(O)(c3ccccc3)C2)ccc1NS(=O)(=O)c1cccc2cccnc12 | 101 to 500 | 101 to 500 | 101 to 500 | B (a % activation at 1 μM of from 101 to 500)
COc1cc(NS(=O)(=O)c2cccc3cccnc23)ccc1C(=O)N1CC(O)(c2ccccc2)C1 | 101 to 500 | 101 to 500 | 101 to 500 | B (a % activation at 1 μM of from 101 to 500)
Cc1cc(C(=O)N2CC(O)C2)ccc1NS(=O)(=O)c1cccc2cccnc12 | 101 to 500 | 101 to 500 | 101 to 500 | A (a % activation at 1 μM of from 1 to 100)
COc1cc(NS(=O)(=O)c2cccc3cccnc23)ccc1C(=O)N1CC(O)C1 | 101 to 500 | 101 to 500 | 101 to 500 | A (a % activation at 1 μM of from 1 to 100)

Now from value to compound, other results behind:

activation at 1 µM [1] [%] | activation at 1 µM [2] [%] | activation at 1 µM [4] [%] | Structure (SMILES) | % Act. T384W [3]
101 to 500 | 1 to 100 | 101 to 500 | CC1(O)CN(C(=O)c2ccc(NS(=O)(=O)c3cccc4cccnc34)cc2)C1 | B (a % activation at 1 μM of from 101 to 500)
101 to 500 | 101 to 500 | 101 to 500 | CC(C)NC(=O)OC1CN(C(=O)c2ccc(NS(=O)(=O)c3cccc4cccnc34)cc2)C1 | B (a % activation at 1 μM of from 101 to 500)
101 to 500 | 101 to 500 | 101 to 500 | C=CCNC(=O)NC1CN(C(=O)c2ccc(NS(=O)(=O)c3cccc4cccnc34)cc2)C1 | B (a % activation at 1 μM of from 101 to 500)
101 to 500 | 101 to 500 | 101 to 500 | C=CCNC(=O)NC1CN(C(=O)c2ccc(NS(=O)(=O)c3cccc4cccnc34)c(OC)c2)C1 | B (a % activation at 1 μM of from 101 to 500)
101 to 500 | 101 to 500 | 101 to 500 | O=C(c1ccc(NS(=O)(=O)c2cccc3cccnc23)cc1)N1CC(O)C1 | B (a % activation at 1 μM of from 101 to 500)
